In PMC5628579, “Potent mechanism-based sirtuin-2-selective inhibition by an in situ-generated occupant of the substrate-binding site, “selectivity pocket” and NAD^+-binding site” (Chemical Science, 2017):

Experiments:
SIRT2 = biological target: T1, SIRT2 (Homo sapiens, UniProt Q8IXJ6); assay: Fluor de Lys SIRT2 assay; conditions: for inhibition at 10 µM: read-out: % inhibition at 10 μM SIRT2; for inhibition at 1 µM: read-out: % inhibition at 1 μM SIRT2
T1 sequence (Q8IXJ6 1-389): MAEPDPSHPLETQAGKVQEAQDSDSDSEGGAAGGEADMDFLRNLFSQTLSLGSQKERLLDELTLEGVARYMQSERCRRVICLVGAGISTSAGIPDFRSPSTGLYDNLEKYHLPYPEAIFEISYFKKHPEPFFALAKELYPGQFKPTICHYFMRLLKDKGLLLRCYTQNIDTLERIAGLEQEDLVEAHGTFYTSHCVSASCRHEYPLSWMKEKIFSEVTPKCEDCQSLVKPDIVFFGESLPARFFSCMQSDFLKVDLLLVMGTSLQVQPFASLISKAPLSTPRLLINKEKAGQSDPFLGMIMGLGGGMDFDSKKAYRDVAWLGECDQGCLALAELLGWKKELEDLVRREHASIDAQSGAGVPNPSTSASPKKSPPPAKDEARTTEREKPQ

SIRT1 [1] = biological target: T2, SIRT1 (Homo sapiens, UniProt Q96EB6); assay: Fluor de Lys SIRT1 assay; conditions: for inhibition at 10 µM: read-out: % inhibition at 10 μM SIRT1; for inhibition at 50 µM: read-out: % inhibition at 50 μM SIRT1
T2 sequence (Q96EB6 1-747): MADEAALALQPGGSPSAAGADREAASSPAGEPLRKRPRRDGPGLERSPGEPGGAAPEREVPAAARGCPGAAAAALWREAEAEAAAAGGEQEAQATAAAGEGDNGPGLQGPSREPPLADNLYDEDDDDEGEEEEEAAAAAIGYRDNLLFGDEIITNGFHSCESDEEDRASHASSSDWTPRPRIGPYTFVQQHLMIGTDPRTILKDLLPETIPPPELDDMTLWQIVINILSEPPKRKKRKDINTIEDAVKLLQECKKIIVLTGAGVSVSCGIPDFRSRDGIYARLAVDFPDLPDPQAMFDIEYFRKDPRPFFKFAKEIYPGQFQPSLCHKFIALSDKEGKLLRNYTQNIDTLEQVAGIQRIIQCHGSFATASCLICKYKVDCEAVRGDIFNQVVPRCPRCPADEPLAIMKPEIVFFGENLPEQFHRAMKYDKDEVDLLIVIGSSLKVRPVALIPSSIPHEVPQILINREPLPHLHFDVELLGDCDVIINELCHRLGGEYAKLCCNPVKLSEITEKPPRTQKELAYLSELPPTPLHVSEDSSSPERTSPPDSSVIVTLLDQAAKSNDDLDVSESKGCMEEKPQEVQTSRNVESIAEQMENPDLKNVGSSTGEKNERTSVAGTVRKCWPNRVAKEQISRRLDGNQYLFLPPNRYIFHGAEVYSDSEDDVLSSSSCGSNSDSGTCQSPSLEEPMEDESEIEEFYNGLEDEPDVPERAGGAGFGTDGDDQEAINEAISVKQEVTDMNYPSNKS

SIRT5 = biological target: T3, SIRT5 (Homo sapiens, UniProt Q9NXA8); assay: Fluor de Lys SIRT5 assay; conditions: for inhibition at 10 µM: read-out: % inhibition at 10 μM SIRT5; for inhibition at 50 µM: read-out: % inhibition at 50 μM SIRT5
T3 sequence (Q9NXA8 37-310): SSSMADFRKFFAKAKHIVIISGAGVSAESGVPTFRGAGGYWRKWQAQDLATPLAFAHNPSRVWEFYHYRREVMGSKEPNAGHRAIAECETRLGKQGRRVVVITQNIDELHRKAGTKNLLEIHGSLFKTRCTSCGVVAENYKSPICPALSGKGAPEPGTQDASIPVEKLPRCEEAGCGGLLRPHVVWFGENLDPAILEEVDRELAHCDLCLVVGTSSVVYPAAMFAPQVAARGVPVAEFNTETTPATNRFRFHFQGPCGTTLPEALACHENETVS

SIRT3 [2] = biological target: T4, SIRT3 (Homo sapiens, UniProt Q9NTG7); assay: Fluor de Lys SIRT3 assay; conditions: for inhibition at 10 µM: read-out: % inhibition at 10 μM SIRT3; for inhibition at 50 µM: read-out: % inhibition at 50 μM SIRT3
T4 sequence (Q9NTG7 1-399): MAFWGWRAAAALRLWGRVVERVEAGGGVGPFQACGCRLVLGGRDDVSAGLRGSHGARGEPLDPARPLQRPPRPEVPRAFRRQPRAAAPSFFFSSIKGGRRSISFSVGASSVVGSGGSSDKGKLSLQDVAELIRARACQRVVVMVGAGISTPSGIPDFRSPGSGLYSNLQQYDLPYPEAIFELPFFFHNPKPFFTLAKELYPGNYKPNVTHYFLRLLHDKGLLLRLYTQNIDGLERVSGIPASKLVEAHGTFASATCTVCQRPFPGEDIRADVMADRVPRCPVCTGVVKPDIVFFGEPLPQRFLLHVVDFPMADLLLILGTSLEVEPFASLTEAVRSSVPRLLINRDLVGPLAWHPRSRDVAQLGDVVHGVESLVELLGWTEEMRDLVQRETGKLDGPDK

MDA-MB-231 cells = assay: Cell growth assay (AlamarBlue), MDA-MB-231; type: cell-based, human; conditions: Homo sapiens, 72 h of treatment
SIRT1 [3] = biological target: T2, SIRT1; design: purchased Biomol / Enzo Life Sciences (Fluor de Lys kit AK-555) BML-SE239-0100; conditions: cited from earlier work
SIRT3 [4] = biological target: T4, SIRT3; design: purchased Biomol / Enzo Life Sciences (Fluor de Lys kit AK-557) BML-SE270-0500; conditions: cited from earlier work

Row | Compound | IC50 (SIRT2) | inhibition at 10 µM (SIRT2) | inhibition at 10 µM (SIRT1 [1]) | inhibition at 50 µM (SIRT1 [1]) | inhibition at 10 µM (SIRT5) | inhibition at 50 µM (SIRT5) | inhibition at 10 µM (SIRT3 [2]) | inhibition at 50 µM (SIRT3 [2]) | GI50 (MDA-MB-231 cells; MDA-MB-231, 72 h) | inhibition at 1 µM (SIRT2) | GI50 (MDA-MB-231 cells) | IC50 (SIRT1 [3]) | IC50 (SIRT3 [4]) | reduction of the SIRT2 inhibitory activity (SIRT2; removal of the phenoxyethyl fragment, relative to 26)
1 | CCCNC(=S)CNC(=O)c1ccccc1Nc1cccc(OCCc2ccccc2)c1 [Compound 41] | 8.47 ± 0.3 µM | 54 ± 1.5% | 0% | 10% | 1 ± 2.2% | 3% | 0% | 0% |  |  |  |  |  | 
2 | CN(C)CCCCC(=O)Nc1ccc(NC(=S)NC(=O)c2ccc(C(C)(C)C)cc2)cc1 [Compound 3, tenovin-6, reference compound] |  | 45 ± 2.5% | 0.9 ± 0.17% | 64% | 0% | 2% | 0% | 9% |  |  |  |  |  | 
3 | C[C@H](NC(=O)[C@H](CCCCNC(=O)CNC(=O)c1ccccc1Nc1cccc(OCCc2ccccc2)c1)NC(=O)OCc1ccccc1)C(N)=O [Compound 26] | 0.37 ± 0.03 µM | 99 ± 0.15% | 16 ± 0.1% | 25% | 0% | 6% | 14 ± 4.9% | 56% | 10.8 µM | 74 ± 2% |  |  |  | 
4 | Cc1cc(C)nc(SCC(=O)Nc2ncc(Cc3cccc4ccccc34)s2)n1 [Compound 5, SirReal2, reference compound] |  | 98 ± 3.1% | 3 ± 0.65% | 6% | 3 ± 1.5% | 1% | 5 ± 0.6% | 1% |  | 80 ± 1.5% | 9.46 µM | > 100 µM | > 100 µM | 
5 | CCCCCNC(=O)CNC(=O)c1ccccc1Nc1cccc(OCCc2ccccc2)c1 [Compound 19] | 6.71 ± 0.42 µM | 69 ± 2.2% | 4.5 ± 3.4% | 4% | 6 ± 3.2% | 6% | 3 ± 3.2% | 2% |  |  |  |  |  | 
6 | CCCNC(=O)CNC(=O)c1ccccc1Nc1cccc(OCCc2ccccc2)c1 [Compound 18] | 4.04 ± 0.65 µM | 81 ± 0.43% | 2 ± 1% | 12% | 0% | 3% | 0% | 3% |  |  |  |  |  | 
7 | C[C@H](NC(=O)[C@H](CCCCNC(=O)CNC(=O)c1ccccc1Nc1ccccc1)NC(=O)OCc1ccccc1)C(N)=O [Compound 27] | 1.84 ± 0.21 µM | 80 ± 0.12% | 24 ± 2.1% | 68% | 0% | 3% | 9 ± 2.2% | 16% |  |  |  |  |  | ~20%
8 | NC(=O)c1ccccc1Nc1cccc(OCCc2ccccc2)c1 [Compound 6, 3′-phenethyloxy-2-anilinobenzamide, reference compound] | 1.74 ± 0.26 µM | 90 ± 1.5% | 3 ± 3.6% | 14% | 10 ± 2.6% | 12% | 1 ± 2.6% | 12% | > 30 µM | 32 ± 4.1% |  | > 300 µM | > 300 µM | 
